From patent US5122523A, “N-acylamino acid derivatives and their pharmaceutical compositions” (Banyu Pharmaceutical Co., Ltd., priority 1987, dated 1992)

The molecules below were run against T1, human plasma renin (Homo sapiens, UniProt P00797) (assay: Renin inhibiting activities (human plasma, angiotensin I by radioimmunoassay)). Settings: pH7.4, 37° C., one hour.
T1 construct: from tissue; host or cells: human plasma
T1 sequence (P00797 67-406): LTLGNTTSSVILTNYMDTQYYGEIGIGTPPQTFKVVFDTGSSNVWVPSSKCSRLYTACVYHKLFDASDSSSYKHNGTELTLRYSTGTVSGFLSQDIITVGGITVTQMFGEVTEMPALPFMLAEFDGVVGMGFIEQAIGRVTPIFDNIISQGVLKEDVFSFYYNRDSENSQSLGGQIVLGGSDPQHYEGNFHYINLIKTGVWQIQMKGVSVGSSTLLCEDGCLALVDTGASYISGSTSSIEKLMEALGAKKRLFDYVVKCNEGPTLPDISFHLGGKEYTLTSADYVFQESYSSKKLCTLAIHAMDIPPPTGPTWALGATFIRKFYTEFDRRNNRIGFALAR
Format: biochemical
Protocol: TEST EXAMPLE 1: Renin inhibiting activities
To 156 μl of a 0.2M sodium phosphate buffer solution (pH7.4), 40 μl of a solution mixture of 34 mM 8-hydroxyquinoline and 100 mM disodium ethylenediamine tetraacetate, 4 μl of dimethyl sulfoxide or a dimethyl sulfoxide solution of an inhibitor and 200 μl of human plasma were added and reacted at 37° C. for one hour. Then, pepstatin was added thereto to terminate the reaction, and the amount of the resulting angiotension I was measured by radio immunoassay whereby the inhibiting activity was determined.

| IC50 [nM] | SMILES |
| --- | --- |
| 0.5 | CCCC[C@H](NC(=O)C(Cc1cccc2ccccc12)CS(=O)(=O)CC)C(=O)N[C@@H](CC(C)C)[C@@H](O)CC(CC)C(=O)NCC(C)C (single isomer, unassigned) [Example 1, (2RS,4S,5S)-5-{L-N-[(2R or S)-3-ethylsulfonyl-2-(1-naphthylmethyl)propionyl]norleucyl}amino-2-ethyl-4-hydroxy-7-methyloctanoic acid isobutylamide] |
| 2.3 | CCCC[C@H](NC(=O)[C@H](Cc1cccc2ccccc12)CS(=O)(=O)Cc1ccco1)C(=O)N[C@@H](CC1CCCCC1)[C@@H](O)[C@@H](O)CN1CCOCC1 [Example 47, (2S,3R,4S)-4-{L-N-[(2S)-3-furfurylsulfonyl-2-(1-naphthylmethyl)propionyl]norleucyl}amino-5-cyclohexyl-1-morpholino-2,3-pentanediol] |
| 1.7 | CCCC[C@H](NC(=O)[C@H](Cc1cccc2ccccc12)CS(=O)(=O)c1ncccn1)C(=O)N[C@@H](CC1CCCCC1)[C@@H](O)[C@@H](O)CN1CCOCC1 [Example 41, (2S,3R,4S)-4-{L-N-[(2S)-2-(1-naphthylmethyl)-3-(pyrimidin-2-yl)sulfonylpropionyl]norleucyl}amino-5-cyclohexyl-1-morpholino-2,3-pentanediol] |
| 1.4 | CCCC[C@H](NC(=O)[C@@H](CSc1nncs1)Cc1cccc2ccccc12)C(=O)N[C@@H](CC(C)C)[C@@H](O)CC(CC)C(=O)NCC(C)C (stereo partly drawn) [Example 5, (2RS,4S,5S),-5-{L-N-[(2S)-3-(1,3,4-thiadiazol-2-yl)thio-2-(1-naphthylmethyl)propionyl]norleucyl}amino-2-ethyl-4-hydroxy-7-methyloctanoic acid isobutylamide] |
| 0.96 | CCCC[C@H](NC(=O)C(Cc1cccc2ccccc12)CS(=O)(=O)c1nnnn1C)C(=O)N[C@@H](CC(C)C)[C@@H](O)C[C@H](CC)C(=O)NCC(C)C (single isomer, unassigned) [Example 4, (2S,4S,5S)-5-{L-N-[(2R or S)-3-(1-methyltetrazol-5-yl)sulfonyl-2-(1-naphthylmethyl)propionyl]norleucyl}amino-2-ethyl-4-hydroxy-7-methyloctanoic acid isobutylamide] |
| 5.9 | CCCC[C@H](NC(=O)[C@H](Cc1cccc2ccccc12)CS(=O)(=O)C(C)(C)C)C(=O)N[C@@H](CC1CCCCC1)[C@@H](O)[C@@H](O)CN1CCOCC1 [Example 38, (2S,3R,4S)-4-{L-N-[(2S)-3-tert-butylsulfonyl-2-(1-naphthylmethyl)propionyl]norleucyl}amino-5-cyclohexyl-1-morpholino-2,3-pentanediol] |
| 8.9 | CCCC[C@H](NC(=O)[C@H](Cc1cccc2ccccc12)CS(=O)(=O)CC)C(=O)N[C@@H](CC1CCCCC1)C(O)C(O)CSC (single isomer, unassigned) [Example 21, (2RS,3R or S,4S)-4-{L-N-[(2S)-3-ethylsulfonyl-2-(1-naphthylmethyl)propionyl]norleucyl}amino-5-cyclohexyl-1-methylthio-2,3-pentanediol] |
| 5.9 | CC(C)[S+]([O-])C[C@@H](Cc1cccc2ccccc12)C(=O)N[C@@H](Cc1c[nH]cn1)C(=O)N[C@@H](CC1CCCCC1)[C@@H](O)[C@@H](O)CN1CCOCC1 (stereo partly drawn) [Example 35, (2S,3R,4S)-4-{L-N^α -[(2S)-3-isopropylsulfinyl-2-(1-naphthylmethyl)propionyl]histidyl}amino-5-cyclohexyl-1-morpholino-2,3-pentanediol] |
| 9.7 | CCCC[C@H](NC(=O)C(CCCSCC)Cc1cccc2ccccc12)C(=O)N[C@@H](CC(C)C)[C@@H](O)CC(CC)C(=O)NCC(C)C (single isomer, unassigned) [Example 12, (2RS,4S,5S)-5-{L-N-[(2R or S)-5-ethylthio-2-(1-naphthylmethyl)pentanoyl]norleucyl}amino-2-ethyl-4-hydroxy-7-methyloctanoic acid isobutylamide] |
| 3.8 | CCCC[C@H](NC(=O)[C@H](Cc1ccccc1)CS(=O)(=O)c1ncccn1)C(=O)N[C@@H](CC1CCCCC1)[C@@H](O)[C@@H](O)CN1CCOCC1 [Example 44, (2S,3R,4S)-4-{L-N-[(2S)-2-benzyl-3-(pyrimidin-2-yl)sulfonylpropionyl]norleucyl}amino-5-cyclohexyl-1-morpholino-2,3-pentanediol] |
| 2 | CCCC[C@H](NC(=O)[C@H](Cc1cccc2cccnc12)CS(=O)(=O)CC)C(=O)N[C@@H](CC(C)C)[C@@H](O)CC(CC)C(=O)NCC(C)C (mixture of isomers) [Example 10, (2RS,4S,5S)-5-{L-N-[(2S)-3-ethylsulfonyl-2-(8-quinolylmethyl)propionyl]norleucyl}amino-2-ethyl-4-hydroxy-7-methyloctanoic acid isobutylamide] |
| 2 | CCCC[C@H](NC(=O)C(Cc1ccccc1)CS(=O)(=O)C1CCCC1)C(=O)N[C@@H](CC1CCCCC1)[C@@H](O)[C@@H](O)CN1CCOCC1 (single isomer, unassigned) [Example 51(B), (2S,3R,4S)-4-{L-N-[(2S or R)-3-cyclopentanesulfonyl-2-benzylpropionyl]norleucyl}amino-5-cyclohexyl-1-morpholino-2,3-pentanediol] |
| 3.6 | CCCC[C@H](NC(=O)[C@H](Cc1cccc2ccccc12)C[S+]([O-])c1ncccn1)C(=O)N[C@@H](CC1CCCCC1)[C@@H](O)[C@@H](O)CN1CCOCC1 (single isomer, unassigned) [Example 42] |
| 3 | CCCC[C@H](NC(=O)[C@H](Cc1ccccc1)CS(=O)(=O)C1CCCC1)C(=O)N[C@@H](CC1CCCCC1)[C@@H](O)[C@@H](O)C[N+]1([O-])CCOCC1 [Example 52, N-[(2S,3R,4S)-4-[L-N-[(2S)-3-cyclopentanesulfonyl-2-benzylpropionyl]norleucyl]amino-5-cyclohexyl-2,3-dihydroxypentyl]morpholine N-oxide] |
| 0.17 | CCCC[C@H](NC(=O)C(Cc1cccc2ccccc12)CS(=O)(=O)c1ncccn1)C(=O)N[C@@H](CC(C)C)[C@@H](O)CC(CC)C(=O)NCC(C)C (single isomer, unassigned) [Example 2, (2RS,4S,5S)-5-{L-N-[(2R or S)-3-(pyrimidin-2-yl)sulfonyl-2-(1-naphthylmethyl)propionyl]norleucyl}amino-2-ethyl-4-hydroxy-7-methyloctanoic acid isobutylamide] |
| 6.1 | CCCC[C@H](NC(=O)[C@H](Cc1cccc2ccccc12)C[S+]([O-])CC)C(=O)N[C@@H](CC1CCCCC1)[C@@H](O)[C@@H](O)CN1CCOCC1 (stereo partly drawn) [Example 49(A), (2S,3R,4S)-4-{L-N-[(2S)-3-ethylsulfinyl-2-(1-naphthylmethyl)propionyl]norleucyl}amino-5-cyclohexyl-1-morpholino-2,3-pentanediol] |
| 1.6 | CCCC[C@H](NC(=O)[C@@H](CSc1ncccn1)Cc1cccc2ccccc12)C(=O)N[C@@H](CC(C)C)[C@@H](O)CC(CC)C(=O)NCC(C)C (mixture of isomers) [Example 6, (2RS,4S,5S)-5-{L-N-[(2S)-3-(pyrimidin-2-yl)thio-2-(1-naphthylmethyl)propionyl]norleucyl}amino-2-ethyl-4-hydroxy-7-methyloctanoic acid isobutylamide] |
| 5.3 | CCCC[C@H](NC(=O)[C@@H](CSc1ncccn1)Cc1cccc2ccccc12)C(=O)N[C@@H](CC1CCCCC1)[C@@H](O)[C@@H](O)CN1CCOCC1 [Example 40, (2S,3R,4S)-4-{L-N-[(2S)-2-(1-naphthylmethyl)-3-(pyrimidin-2-yl)thiopropionyl]norleucyl}amino-5-cyclohexyl-1-morpholino-2,3-pentanediol] |
| 8.3 | CCCC[C@H](NC(=O)[C@H](Cc1cccc2ccccc12)CS(=O)(=O)CC)C(=O)N[C@@H](CC(C)C)[C@@H](O)[C@@H](O)CN1CCOCC1 [Example 19, (2S,3R,4S)-4-{L-N-[(2S)-3-ethylsulfonyl-2-(1-naphthylmethyl)propionyl]norleucyl}amino-6-methyl-1-morpholino-2,3-heptanediol] |
| 1.5 | CCCC[C@H](NC(=O)[C@@H](Cc1cccc2ccccc12)CS(=O)(=O)CC)C(=O)N[C@@H](CC(C)C)[C@@H](O)C[C@@H](CC)C(=O)NCCN1CCOCC1 (single isomer, unassigned) [Example 8, (2R or S,4S,5S)-5-{L-N-[(2R or S)-3-ethylsulfonyl-2-(1-naphthylmethyl)propionyl]norleucyl}amino-2-ethyl-4-hydroxy-7-methyloctanoic acid 2-morpholinoethylamide] |
| 4.2 | CCS(=O)(=O)C[C@@H](Cc1cccc2ccccc12)C(=O)N[C@@H](Cc1c[nH]cn1)C(=O)N[C@@H](CC1CCCCC1)[C@@H](O)[C@@H](O)CN1CCOCC1 [Example 31, (2S,3R,4S)-4-{L-N^α -[(2S)-3-ethylsulfonyl-2-(1-naphthylmethyl)propionyl]histidyl}amino-5-cyclohexyl-1-morpholino-2,3-pentanediol] |
| 2 | CCCC[C@H](NC(=O)[C@H](Cc1ccccc1)CS(=O)(=O)Cc1ccco1)C(=O)N[C@@H](CC1CCCCC1)[C@@H](O)[C@@H](O)CN1CCOCC1 [Example 56, (2S,3R,4S)-4-{L-N-[(2S)-2-benzyl-3-furfurylsulfonylpropionyl]norleucyl}amino-5-cyclohexyl-1-morpholino-2,3-pentanediol] |
